PubChem BioAssay AID236 (DTP/NCI, 2004)
Several values for one entry are separate records, joined by “and”; a condition that tells them apart may be missing. Equal values may be shown once. Inconclusive results and toxic doses are left out. How the source made its calls: active means survival T/C of 150% or more; inactive means T/C below 125% in these data.

Tested on: AK4 lymphoid leukemia ip, C3AKF1 mice, survival
Assay: NCI In Vivo Anticancer Drug Screen. Data for tumor model AK4 Lymphoid Leukemia (intraperitoneal) in C3AKF1 (CHKRF1) mice
Settings: endpoint: median survival time, schedule: Q01DX010 (ip), higher = longer survival
Procedure: The antitumor activity of compounds was measured in mice bearing transplantable tumors. Survival or tumor size were measured and the results are expressed as the measurement made in the treated group (T) divided by the measurement made in the vehicle treated control group (C). The tumor model used in this assay is AK4 Lymphoid Leukemia (intraperitoneal) in C3AKF1 (CHKRF1) mice

[1] = dose: 2.0 mg/kg/injection, vehicle: saline
[2] = dose: 4.0 mg/kg/injection, vehicle: saline
[3] = dose: 8.0 mg/kg/injection, vehicle: saline
[4] = dose: 16.0 mg/kg/injection, vehicle: saline
[5] = dose: 6.0 mg/kg/injection, vehicle: saline
[6] = dose: 12.0 mg/kg/injection, vehicle: saline
[7] = dose: 2.5 mg/kg/injection, vehicle: saline
[8] = dose: 5.0 mg/kg/injection, vehicle: saline
[9] = dose: 10.0 mg/kg/injection, vehicle: saline
[10] = dose: 20.0 mg/kg/injection, vehicle: saline
[11] = dose: 3.13 mg/kg/injection, vehicle: saline
[12] = dose: 6.25 mg/kg/injection, vehicle: saline
[13] = dose: 12.5 mg/kg/injection, vehicle: saline
[14] = dose: 50.0 mg/kg/injection, vehicle: saline
[15] = dose: 100.0 mg/kg/injection, vehicle: saline
[16] = dose: 200.0 mg/kg/injection, vehicle: saline
[17] = dose: 18.0 mg/kg/injection, vehicle: saline
[18] = dose: 1.25 mg/kg/injection, vehicle: saline
[19] = dose: 25.0 mg/kg/injection, vehicle: saline
[20] = dose: 32.0 mg/kg/injection, vehicle: saline
[21] = dose: 64.0 mg/kg/injection, vehicle: saline

Measured: T/C

CS(=O)(=O)OCCN(CCOS(C)(=O)=O)c1ccc(N=O)cc1
inactive: dose: 0.5 mg/kg/injection, vehicle: saline 111 % of control | dose: 1.0 mg/kg/injection, vehicle: saline 111 % of control | [1] 94 % of control | [2] 88 % of control | dose: 62.5 micrograms/kg/injection, vehicle: saline 110 % of control | dose: 125.0 micrograms/kg/injection, vehicle: saline 115 % of control | dose: 250.0 micrograms/kg/injection, vehicle: saline 115 % of control | dose: 500.0 micrograms/kg/injection, vehicle: saline 115 % of control

CS(=O)(=O)OCCCl
inactive: dose: 18.8 mg/kg/injection, vehicle: saline 100 % of control | dose: 37.5 mg/kg/injection, vehicle: saline 100 % of control | dose: 75.0 mg/kg/injection, vehicle: saline 100 % of control

O=C(Nc1ccc(NC2=NCCN2)cc1)c1ccc(C(=O)Nc2ccc(NC3=NCCN3)cc2)cc1
inactive: [1] 95 % of control and 105 % of control | [2] 90 % of control and 110 % of control | [3] 110 % of control
active: [4] 150 % of control

N=C(N)c1ccc(Nc2ccc(C(=N)N)cc2)cc1
inactive: dose: 1.5 mg/kg/injection, vehicle: saline 88 % of control | dose: 3.0 mg/kg/injection, vehicle: saline 88 % of control and 122 % of control | [5] 94 % of control and 105 % of control | [6] 94 % of control and 111 % of control

NC(Cc1c[nH]c2ccc(N(CCCl)CCCl)cc12)C(=O)O (stereo unspecified)
active: [1] 156 % of control | [2] 175 % of control

S=P(N1CCOCC1)(N1CC1)N1CC1
inactive: [7] 94 % of control | [8] 105 % of control | [9] 100 % of control | [10] 94 % of control

Cc1n[nH]c(=O)[nH]c1=O
inactive: dose: 125.0 mg/kg/injection, vehicle: saline 87 % of control | dose: 250.0 mg/kg/injection, vehicle: saline 100 % of control | dose: 500.0 mg/kg/injection, vehicle: saline 87 % of control | dose: 1000.0 mg/kg/injection, vehicle: saline 87 % of control

[I][Hg][CH2]C1COC([CH2][Hg][I])CO1 (stereo unspecified)
inactive: dose: 0.78 mg/kg/injection, vehicle: saline 106 % of control | dose: 1.56 mg/kg/injection, vehicle: saline 100 % of control | [11] 100 % of control | [12] 100 % of control | [13] 88 % of control

C#CCN(C)Cc1ccccc1
inactive: [14] 88 % of control | [15] 88 % of control | [16] 88 % of control

Oc1cc(CN(CCCl)CCCl)c(O)cc1CN(CCCl)CCCl
inactive: [9] 100 % of control

C[n+]1c2ccccc2nc2c(N)cc(N)cc21
inactive: [6] 106 % of control | [17] 106 % of control | dose: 27.0 mg/kg/injection, vehicle: saline 100 % of control

C[C@@H]1C[C@@H]([C@H](O)CC2CC(=O)NC(=O)C2)C(=O)[C@@H](C)C1
inactive: [8] 100 % of control and 107 % of control | [9] 87 % of control and 121 % of control | [10] 93 % of control and 114 % of control

O=C(O)c1[nH]c(=O)[nH]c(=O)c1F
inactive: [18] 105 % of control | [7] 122 % of control | [10] 111 % of control
active: [9] 155 % of control and 205 % of control

O=C(Nc1ccc(C2=NCCN2)cc1)c1ccc(C(=O)Nc2ccc(C3=NCCN3)cc2)c([N+](=O)[O-])c1
active: [5] 150 % of control | [6] 155 % of control and 210 % of control
100 % of control and 240 % of control: [17]

CC[n+]1c(-c2ccccc2)c2cc(N)ccc2c2ccc(N)cc21
inactive: [18] 100 % of control | [7] 100 % of control | [8] 100 % of control | [9] 100 % of control and 112 % of control | [10] 112 % of control

O=C(O)CCCc1ccc(N(CCCl)CCCl)cc1
inactive: [11] 100 % of control | [12] 113 % of control and 120 % of control | [13] 95 % of control

Nc1nc(=S)c2[nH]cnc2[nH]1
inactive: dose: 1.25 mg/kg/injection, vehicle: other 100 % of control and 114 % of control | dose: 2.5 mg/kg/injection, vehicle: other 93 % of control and 114 % of control | dose: 5.0 mg/kg/injection, vehicle: other 112 % of control | dose: 10.0 mg/kg/injection, vehicle: other 106 % of control

C[C@H]1C(=O)O[C@@H]2CCN3CC=C(COC(=O)[C@](C)(O)[C@@]1(C)O)[C@H]23
inactive: [11] 111 % of control | [12] 100 % of control | [13] 117 % of control

O=C1C(NC(=O)C2CCCCC2)=C(N2CC2)C(=O)C(NC(=O)C2CCCCC2)=C1N1CC1
inactive: [19] 90 % of control | [14] 95 % of control and 100 % of control | [15] 95 % of control and 100 % of control | [16] 100 % of control and 110 % of control | dose: 400.0 mg/kg/injection, vehicle: saline 116 % of control

CC1CCOS(=O)O1 (stereo unspecified)
inactive: [9] 100 % of control | [10] 88 % of control and 100 % of control | dose: 40.0 mg/kg/injection, vehicle: saline 90 % of control and 100 % of control | dose: 80.0 mg/kg/injection, vehicle: saline 88 % of control

CC[C@@H](c1ccc(O)cc1)[C@@H](CC)c1ccc(O)cc1
inactive: dose: 25.0 mg/kg/injection, vehicle: water 100 % of control | dose: 50.0 mg/kg/injection, vehicle: water 87 % of control | dose: 100.0 mg/kg/injection, vehicle: water 87 % of control | dose: 200.0 mg/kg/injection, vehicle: water 87 % of control

Nc1ncnc2c1ccn2C1OC(CO)C(O)C1O (stereo unspecified)
inactive: dose: 156.0 micrograms/kg/injection, vehicle: saline 106 % of control | dose: 313.0 micrograms/kg/injection, vehicle: saline 112 % of control | dose: 625.0 micrograms/kg/injection, vehicle: saline 112 % of control | dose: 1250.0 micrograms/kg/injection, vehicle: saline 112 % of control

CCCCn1cnc2c(=S)nc[nH]c21
inactive: [4] 100 % of control | [20] 90 % of control and 122 % of control | [21] 90 % of control and 111 % of control | dose: 128.0 mg/kg/injection, vehicle: saline 94 % of control and 100 % of control

Cc1cc2nc3c(=O)[nH]c(=O)nc-3n(CC(O)C(O)C(O)C(O)CO)c2cc1C (stereo unspecified)
inactive: [11] 105 % of control | [12] 111 % of control | [13] 105 % of control | [19] 100 % of control and 105 % of control | [16] 88 % of control

O=C(Nc1ccc(C2=NCCN2)cc1)c1cccc(C(=O)Nc2ccc(C3=NCCN3)cc2)c1
inactive: [3] 115 % of control
active: [4] 150 % of control and 165 % of control | [20] 205 % of control and 210 % of control | [21] 235 % of control and 245 % of control
